Columns and labels:
bamyardgrass = assay: Test B flood test barnyardgrass; format: in vivo, Echinochloa crus-galli
How it was run: (§1)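 Flood test on plants grown to the 2-leaf stage; treated plants kept in greenhouse twelve to sixteen days, then visually rated against controls on a 0 (no effect) to 10 (complete control) scale.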

cocklebur = assay: Test B pre/postemergence cocklebur; format: in vivo, Xanthium strumarium
How it was run: (§2)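 Response is a visual 0-to-10 score relative to untreated plants, where 0 means no effect and 10 means complete control, taken twelve to sixteen days after application. Treatments went onto soil at planting and onto foliage of 1- to 4-leaf plants, using a surfactant-containing non-phytotoxic solvent.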

corn = assay: Test B pre/postemergence corn; format: in vivo, Zea mays
How it was run: as §2

pigweed = assay: Test B pre/postemergence pigweed; format: in vivo, Amaranthus retroflexus
How it was run: as §2

morningglory = assay: Test B pre/postemergence morningglory; format: in vivo, Ipomoea hederacea
How it was run: as §2

bedstraw = assay: Test B pre/postemergence bedstraw; format: in vivo, Galium aparine
How it was run: as §2

rice = assay: Test B flood test rice; format: in vivo, Oryza sativa
How it was run: as §1

sugar beet = assay: Test B pre/postemergence sugar beet; format: in vivo, Beta vulgaris
How it was run: as §2

duck salad = assay: Test B flood test duck salad; format: in vivo, Heteranthera limosa
How it was run: as §1

surinam grass = assay: Test B pre/postemergence surinam grass; format: in vivo, Brachiaria decumbens
How it was run: as §2

soybean = assay: Test B pre/postemergence soybean; format: in vivo, Glycine max
How it was run: as §2

rape = assay: Test B pre/postemergence rape; format: in vivo, Brassica napus
How it was run: as §2

crabgrass = assay: Test B pre/postemergence crabgrass; format: in vivo, Digitaria sanguinalis
How it was run: as §2

wild oat = assay: Test B pre/postemergence wild oat; format: in vivo, Avena fatua
How it was run: as §2

smallflower flatsedge = assay: Test B flood test smallflower flatsedge; format: in vivo, Cyperus difformis
How it was run: as §1

velvetleaf = assay: Test B pre/postemergence velvetleaf; format: in vivo, Abutilon theophrasti
How it was run: as §2

[1] = Postemergence, Rate 62 g/ha, scale 0 to 10, 0 is no effect, 10 is complete control
[2] = Rate 125 g/ha, Postemergence section (flood test species), scale 0 to 10, 0 no effect, 10 complete control
[3] = Rate 250 g/ha, headed Pre-emergence (flood test species), scale 0 to 10 (0 no effect, 10 complete control)
[4] = Rate 500 g/ha, headed Pre-emergence (flood test species), scale 0 to 10 (0 no effect, 10 complete control)
[5] = Rate 500 g/ha, listed under Postemergence (flood test species), scale 0 to 10, 0 no effect, 10 complete control
[6] = Rate 1000 g/ha, Pre-emergence (as headed), scale 0 to 10
[7] = flood test, listed under Postemergence, Rate 250 g/ha, scale 0 to 10, 0 no effect, 10 complete control
[8] = Postemergence, Rate 250 g/ha, scale 0 to 10, 0 no effect, 10 complete control
[9] = Preemergence, Rate 62 g/ha, scale 0 to 10 (0 no effect, 10 complete control)
[10] = Preemergence, Rate 125 g/ha, scale 0 to 10 (0 no effect, 10 complete control)
[11] = Preemergence, Rate 250 g/ha, scale of 0 to 10 where 0 is no effect and 10 is complete control
[12] = Preemergence, Rate 500 g/ha, scale 0 (no effect) to 10 (complete control)
[13] = Rate 125 g/ha, Postemergence, scale 0 to 10, 0 no effect, 10 complete control
[14] = Rate 500 g/ha, Postemergence, scale 0 to 10, 0 no effect, 10 complete control
[15] = Rate 2000 g/ha, Pre-emergence (as headed), scale 0 to 10

## CC(C)N(C(=O)n1oc(=O)n(Cc2cccs2)c1=O)c1ccc(F)cc1F [Compound 86]
bamyardgrass; [1]
  Barnyardgrass plant response rating: 0
bamyardgrass; [2]
  Barnyardgrass plant response rating: 0
bamyardgrass; [3]
  Barnyardgrass plant response rating: 0
bamyardgrass; [4]
  Plant response rating, Barnyardgrass: 0
bamyardgrass; [5]
  Barnyardgrass plant response rating: 0
bamyardgrass; [6]
  Barnyardgrass plant response rating: 0
bamyardgrass; Rate 2000 g/ha, Pre-emergence (as headed), scale 0 to 10, 0 no effect, 10 complete control
  Barnyardgrass plant response rating: 0
bamyardgrass; [7]
  Barnyardgrass plant response rating: 0
cocklebur; [1]
  Cocklebur plant response rating: 0
cocklebur; [8]
  Cocklebur plant response rating: 2
cocklebur; [9]
  Cocklebur plant response rating: 0
cocklebur; [10]
  Plant response rating, Cocklebur: 0
cocklebur; [11]
  Plant response rating, Cocklebur: 0
cocklebur; [12]
  Cocklebur plant response rating: 0
cocklebur; [13]
  Cocklebur plant response rating: 1
cocklebur; [14]
  Cocklebur plant response rating: 2
corn; [1]
  Corn plant response rating: 0
corn; [8]
  Corn plant response rating: 00
corn; [9]
  Corn plant response rating: 0
corn; [10]
  Plant response rating, Corn: 0
corn; [11]
  Plant response rating, Corn: 0
corn; [12]
  Corn plant response rating: 0
corn; [13]
  Corn plant response rating: 0
corn; [14]
  Corn plant response rating: 0
pigweed; [1]
  Redroot pigweed plant response rating: 0
pigweed; [8]
  Redroot pigweed plant response rating: 5
pigweed; [9]
  Redroot pigweed plant response rating: 2
pigweed; [10]
  Plant response rating, Redroot pigweed: 4
pigweed; [11]
  Plant response rating, Redroot pigweed: 8
pigweed; [12]
  Redroot pigweed plant response rating: 8
pigweed; [13]
  Redroot pigweed plant response rating: 0
pigweed; [14]
  Redroot pigweed plant response rating: 7
morningglory; [1]
  Morningglory plant response rating: 4
morningglory; [8]
  Morningglory plant response rating: 7
morningglory; [9]
  Morningglory plant response rating: 0
morningglory; [10]
  Plant response rating, Morningglory: 0
morningglory; [11]
  Plant response rating, Morningglory: 0
morningglory; [12]
  Morningglory plant response rating: 0
morningglory; [13]
  Morningglory plant response rating: 7
morningglory; [14]
  Morningglory plant response rating: 8
bedstraw; [1]
  Bedstraw plant response rating: 2
bedstraw; [8]
  Bedstraw plant response rating: 6
bedstraw; [9]
  Bedstraw plant response rating: 0
bedstraw; [10]
  Plant response rating, Bedstraw: 0
bedstraw; [11]
  Plant response rating, Bedstraw: 0
bedstraw; [12]
  Bedstraw plant response rating: 0
bedstraw; [13]
  Bedstraw plant response rating: 4
bedstraw; [14]
  Bedstraw plant response rating: 8
rice; [1]
  Rice plant response rating: 0
rice; [2]
  Rice plant response rating: 0
rice; [3]
  Rice plant response rating: 0
rice; [4]
  Plant response rating, Rice: 0
rice; [5]
  Rice plant response rating: 0
rice; [6]
  Rice plant response rating: 0
rice; [15]
  Rice plant response rating: 8
rice; [7]
  Rice plant response rating: 0
Sugar beet; [1]
  Sugarbeets plant response rating: 0
Sugar beet; [8]
  Sugarbeets plant response rating: 3
Sugar beet; [9]
  Sugarbeets plant response rating: 0
Sugar beet; [10]
  Plant response rating, Sugarbeets: 0
Sugar beet; [11]
  Plant response rating, Sugarbeets: 3
Sugar beet; [12]
  Sugarbeets plant response rating: 3
Sugar beet; [13]
  Sugarbeets plant response rating: 3
Sugar beet; [14]
  Sugarbeets plant response rating: 6
Duck salad; [1]
  Ducksalad plant response rating: 0
Duck salad; [2]
  Ducksalad plant response rating: 0
Duck salad; [3]
  Ducksalad plant response rating: 0
Duck salad; [4]
  Plant response rating, Ducksalad: 0
Duck salad; [5]
  Ducksalad plant response rating: 0
Duck salad; [6]
  Ducksalad plant response rating: 0
Duck salad; [15]
  Ducksalad plant response rating: 0
Duck salad; [7]
  Ducksalad plant response rating: 0
Surinam grass; [1]
  B. signalgrass plant response rating: 0
Surinam grass; [8]
  B. signalgrass plant response rating: 0
Surinam grass; [9]
  B. signalgrass plant response rating: 0
Surinam grass; [10]
  Plant response rating, B. signalgrass: 2
Surinam grass; [11]
  Plant response rating, B. signalgrass: 4
Surinam grass; [12]
  B. signalgrass plant response rating: 7
Surinam grass; [13]
  B. signalgrass plant response rating: 0
Surinam grass; Rate 500 g/ha, Postemergence, scale of 0 to 10 where 0 is no effect and 10 is complete control
  B. signalgrass plant response rating: 0
soybean; [1]
  Soybean plant response rating: 2
soybean; [8]
  Soybean plant response rating: 2
soybean; [9]
  Soybean plant response rating: 0
soybean; [10]
  Plant response rating, Soybean: 0
soybean; [11]
  Plant response rating, Soybean: 0
soybean; [12]
  Soybean plant response rating: 0
soybean; [13]
  Soybean plant response rating: 2
soybean; [14]
  Soybean plant response rating: 3
rape; [1]
  Rape plant response rating: 0
rape; [8]
  Rape plant response rating: 2
rape; [9]
  Rape plant response rating: 0
rape; [10]
  Plant response rating, Rape: 0
rape; [11]
  Plant response rating, Rape: 0
rape; [12]
  Rape plant response rating: 4
rape; [13]
  Rape plant response rating: 0
rape; [14]
  Rape plant response rating: 4
crabgrass; [1]
  Crabgrass plant response rating: 2
crabgrass; [8]
  Crabgrass plant response rating: 5
crabgrass; [9]
  Crabgrass plant response rating: 5
crabgrass; [10]
  Plant response rating, Crabgrass: 8
crabgrass; [11]
  Plant response rating, Crabgrass: 10
crabgrass; [12]
  Crabgrass plant response rating: 10
crabgrass; [13]
  Crabgrass plant response rating: 3
crabgrass; [14]
  Crabgrass plant response rating: 9
Wild oat; [1]
  Wild oats plant response rating: 0
Wild oat; [8]
  Wild oats plant response rating: 0
Wild oat; [9]
  Wild oats plant response rating: 0
Wild oat; [10]
  Plant response rating, Wild oats: 0
Wild oat; [11]
  Plant response rating, Wild oats: 4
Wild oat; [12]
  Wild oats plant response rating: 5
Wild oat; [13]
  Wild oats plant response rating: 0
Wild oat; [14]
  Wild oats plant response rating: 0
Smallflower flatsedge; [1]
  S. Flatsedge plant response rating: 0
Smallflower flatsedge; Pre-emergence, Rate 1000 g/ha, scale 0 to 10 (0 no effect, 10 complete control)
  S. Flatsedge plant response rating: 0
Smallflower flatsedge; [2]
  S. Flatsedge plant response rating: 0
Smallflower flatsedge; [3]
  S. Flatsedge plant response rating: 0
Smallflower flatsedge; [4]
  Plant response rating, S. Flatsedge: 0
Smallflower flatsedge; [5]
  S. Flatsedge plant response rating: 0
Smallflower flatsedge; [15]
  S. Flatsedge plant response rating: 0
Smallflower flatsedge; [7]
  S. Flatsedge plant response rating: 0
velvetleaf; [1]
  Velvetleaf plant response rating: 0
velvetleaf; [8]
  Velvetleaf plant response rating: 0
velvetleaf; [9]
  Velvetleaf plant response rating: 0
velvetleaf; [10]
  Plant response rating, Velvetleaf: 0
velvetleaf; [11]
  Plant response rating, Velvetleaf: 3
velvetleaf; [12]
  Velvetleaf plant response rating: 5
velvetleaf; [13]
  Velvetleaf plant response rating: 0
velvetleaf; [14]
  Velvetleaf plant response rating: 2
